Experimental data from patent US5688764A, “Insecticidal peptides from spider venom” (NPS Pharmaceuticals, Inc., priority 1995, dated 1997).

Columns and labels:
Balb-C mice = assay: Mammalian toxicity by intraperitoneal injection in mice; type: in vivo; conditions: male Balb-C mice, 50 micrograms per mouse (~2 mg/kg), up to 120 hours after treatment
Experimental: Peptide A was tested for mammalian toxicity by intraperitoneal injection in mice. Two male Balb-C mice (~25 grams each) were injected with peptide A in physiological saline, at a dose of 50 micrograms per mouse (~2 mg/kg). Two control mice were injected with an equal volume of saline carrier. The mice were observed continuously for 1.5 hours, and periodically thereafter.

[1] = test system: tobacco budworm (TBW), Heliothis virescens; assay: Bioassay: injection into the abdomen of fifth instar tobacco budworm larvae, paralysis; type: in vivo; conditions: probit regression
Experimental: Whole venom was isolated by known techniques from the spider, Calisoga. The whole venom, or peptides purified therefrom, were dissolved in sterile buffered physiological saline. For testing and characterization purposes, venom and toxins were administered by injection into the abdomen of fifth instar larvae of the tobacco budworm (TBW), Heliothis virescens. Control larvae were injected with an equal volume of saline. After treatment, the insects were placed individually in Petri dishes, with food, and observed.
Insects that could not right themselves within thirty seconds of being placed on their backs or side were considered paralyzed. Fifty percent paralytic dose (PD50) values were calculated by probit regression (see Example 2). Raymond, M., Ser. Ent. med et Parasitol, 22(2), 117-121 (1985).
Whole venom from a spider, Calisoga sp. (Aranae: Nemesiidae), was dissolved in the desired volume of sterile, buffered physiological saline. Samples were administered by injection into the abdomen of the fifth instar larvae of the tobacco budworm, Heliothis virescens, as previously described. Control larvae were injected with equal volumes of saline.

[2] = test system: Heliothis virescens larvae; conditions: toxin secreted in the course of infection by recombinant baculovirus; natural host; cited from earlier work
Manduca sexta larvae = conditions: toxin secreted in the course of infection by recombinant baculovirus; unnatural host; cited from earlier work

Molecule	mammalian toxicity: effects observed (Balb-C mice)	PD50 95% confidence interval [1]	PD50 (fifty percent paralytic dose) [1]	effect on larvae (paralysis) [2]	effect on larvae (paralysis) (Manduca sexta larvae)
peptide A (CISARYPCSNSKDCCSGNCGTFWTCYIRKDPCSKECLAP)	No effects were noted	1.70 to 3.22 µg/g	2.37 µg/g	–	–
peptide B (CISARYPCSNSKDCCSGNCGTFWTCFIRKDPCSKECLAP)	–	1.72 to 8.0 µg/g	3.7 µg/g	–	–
AaIT: scorpion peptide insect toxin expressed from a recombinant baculovirus (McCutchen et al. 1991) (protein, UniProt P01497 19-88, looked up) Beta-insect excitatory toxin 1: KKNGYAVDSSGKAPECLLSNYCNNECTKVHYADKGYCCLLSCYCFGLNDDKKVLEISDTRKSYCDTTIIN	–	–	–	caused paralysis	caused paralysis
